Format in all cases: cell-based
The subject of assay [1] is Kasumi-1 (c-Kit N822K mutant type). Put plainly: In vitro growth inhibition (GI50), Kasumi-1. The conditions noted are these: Homo sapiens, Cell lines of leukemia, read-out: GI 50 Kasumi-1 Kit (N822K). The method in brief:
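Cells in RPMI1640 with 10% FBS, seeded at 5–10×10^4 cells/mL, exposed next day to compound at 5,000 nM down to 0.01 nM (2- or 10-fold dilutions, ≤1% solvent) for 3–5 days at 37 °C. CCK8 absorbance at 450 nm, growth rate relative to pre-treatment and solvent controls, GI50 from concentration–growth curve.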

Assay [2] has as its system K562 (FLT3 negative expression, positive expression of BCR-ABL fusion protein). Put plainly: In vitro growth inhibition (GI50), K562. The note with it: Homo sapiens, Cell lines of leukemia, read-out: GI 50 K562 BCR-ABL.
Assay [3] relates to NCI-H1581 (FGFR1 amp). As to the kind of experiment: In vitro growth inhibition (GI50), NCI-H1581. The conditions noted are these: Homo sapiens. The text has this:
Tumor cell line is an effective cell model for studying the inhibition of tumor cell growth or proliferation in vitro. In the present invention, a representative tumor cell line was selected to determine the cell growth inhibition activity of the present compound. All cell lines used were from ATCC, DSMZ, and the Cell Bank of the Chinese Academy of Sciences. Cell culture conditions and methods were in accordance with the requirements of each cell line. Cells were subcultured in vitro for no more than 3 passages each time, and as required, single-clone purification and identification of cell lines could be carried out.
The cell culture media used were RPMI1640 (Gibco), MEM (Gibco), McCOY'S5A (Gibco), and IMDM (Gibco). The complete medium was prepared by supplement with 5˜20% fetal calf serum (Gibco), 1% double-antibiotics (10000 units/mL penicillin and 10000 units/mL), 2 mM glutamine or 1 mM sodium pyruvate, respectively.
Human non-small cell lung cancer cell NCI-H1581 (FGFR1 amp, ATCC) is an FGFR1 gene amplified/overexpressed tumor cell line. It was cultured in complete medium comprising 1×RPMI1640 with 10% FBS.
Adherent cells were digested with 0.25% pancreatin-EDTA (Gibco). The suspension cells were collected by centrifugation. The supernatant was discarded and the cell pellet was resuspended and counted. Different cell concentrations (5˜10×10^4 cells/mL) were prepared according to the growth cycle of each cell line and then seeded on a 96-well plate (Corning), 100 μL/well. The cells were incubated overnight at 37° C., 5% CO2. The compounds were added to the cells on the second day with 2 wells in parallel. The final concentration of organic solvent shall not exceed 1%. The cells were continually incubated for 3 to 5 days, and then subjected to MTT assay.
The compound of the present invention and the control compound were dissolved in DMSO (Sigma) respectively, with the purity of more than 98%. The compound was stored in a concentration of 10 mM at −20° C. and diluted to 2- or 10-fold series prior to use.
Dojindo CCK8 reagent kit was used as MTT assay. THERMO […] FC meter was used as microplate reader.
For adherent cells, culture medium was removed and immediately replaced with the fresh prepared medium which contains 10% CCK8 reagent (100 μL/well). For the suspension cells, CCK8 was directly added to 10% of the final concentration. The cells were continually incubated for 1˜4 h. When a dark yellow color could be observed in the solvent control wells, the absorbance value at OD450 nm was measured and the cell growth rate was calculated according to the following formula: Cell Growth Rate (%)=100*(T−T0)/(C−T0) T=optical density of drug treatment cell well—optical density of blank control well; T0=optical density of cell well before drug treatment—optical density of blank control well; C=optical density of cell well of solvent control group—optical density of blank control well. The concentration value of 50% inhibition of cell growth (GI50) was calculated according to the drug concentration and cell growth rate curve. The experiment was independently repeated 1˜3 times, and subject to biological statistical analysis. 4. Experimental Results
Tumor cell growth inhibition test was performed by selecting representative compounds (compounds 4, 11, 12, 16, 27, 68, 71, 77, 79, 89 and 116 of the present invention). The initial concentration of the compound was 5,000 nM, then it was serially diluted by 2-fold or 10-fold to 0.01 nM. The GI50 value of each test compound was calculated according to the GI50 assay and calculation method. The experiments were repeated 1 to 3 times, and data were subjected to biological statistical analysis.

In the case of `CC(C)(C)c1cc(NC(=O)Nc2ccc(-n3cnc4cc(O)ccc43)cc2)no1` [Compound 4, 1-(5-tert-butyl-isoxazol-3-yl)-3-[4-(5-hydroxy-benzimidazol-1-yl)-phenyl]-urea], the figures for the GI50 in assay [1], in assay [2] and in assay [3] were 0.1 to 1 µM, 0.1 to 1 µM and above 2.5 µM, respectively.

With `CC(C)(C)c1cc(NC(=O)Nc2ccc(-n3cnc4cc(OCCO)ccc43)cc2)no1` [Compound 11, 1-(5-tert-butyl-isoxazol-3-yl)-3-{4-[5-(2-hydroxy-ethoxyl)-benzimidazol-1-yl]-phenyl]-urea], the values for the GI50 in assay [1], in assay [2] and in assay [3] were above 1 µM, above 1 µM and above 2.5 µM, respectively.

For the molecule `CC(C)(C)c1cc(NC(=O)Nc2ccc(-n3cnc4cc(OCCN5CCOCC5)ccc43)cc2)no1` [Compound 16, 1-(5-tert-butyl-isoxazol-3-yl)-3-{4-[5-(2-morpholin-4-yl-ethoxyl)-benzimidazol-1-yl]-phenyl}-urea], the GI50 in assay [1] was above 1 µM; in assay [2] it was above 1 µM; in assay [3], above 2.5 µM.

In the case of `CC(C)(C)c1cc(NC(=O)Nc2ccc(-n3cnc4ccc(OCCN5CCOCC5)cc43)cc2)no1` [Compound 27, 1-(5-tert-butyl-isoxazol-3-yl)-3-{4-[6-(2morpholin-4-yl-ethoxyl)-benzimidazol-1-yl]-phenyl}-urea], the GI50 is above 1 µM in assay [1], above 1 µM in assay [2] and above 2.5 µM in assay [3].

With `CC(C)(C)c1cc(NC(=O)Nc2ccc(-n3cnc4ccccc43)cc2)[nH]n1` [Compound 68, 1-(4-benzimidazol-1-yl-phenyl)-3-(5-tert-butyl-2H-pyrazol-3-yl)-urea], the GI50 is above 1 µM in assay [1], above 1 µM in assay [2] and above 2.5 µM in assay [3].

For `COc1ccc2c(c1)ncn2-c1ccc(NC(=O)Nc2cc(C(C)(C)C)n[nH]2)cc1` [Compound 71, 1-(5-tert-butyl-2H-pyrazol-3-yl)-3-[4-(5-methoxyl-benzimidazol-1-yl)-phenyl]-urea], the figures for the GI50 in assay [1], in assay [2] and in assay [3] were above 1 µM, above 1 µM and above 2.5 µM, respectively.

Take `COCCOc1ccc2c(c1)ncn2-c1ccc(NC(=O)Nc2cc(C(C)(C)C)n[nH]2)cc1` [Compound 77, 1-(5-tert-butyl-2H-pyrazol-3-yl)-3-{4-[5-(2-methoxyl-ethoxyl)-benzimidazol-1-yl]-phenyl}-urea]: the GI50 was above 1 µM in assay [1], above 1 µM in assay [2] and above 2.5 µM in assay [3].

`CC(C)(C)c1cc(NC(=O)Nc2ccc(-n3cnc4cc(OCCO)ccc43)cc2)[nH]n1` [Compound 79, 1-(5-tert-butyl-2H-pyrazol-3-yl)-3-{4-[5-(2-hydroxy-ethoxyl)-benzimidazol-1-yl]-phenyl]urea]: the results for the GI50 in assay [1], in assay [2] and in assay [3] were above 1 µM, above 1 µM and above 2.5 µM, respectively.

On to `CC(C)(C)c1cc(NC(=O)Nc2ccc(-n3cnc4cc(OCCN5CCOCC5)ccc43)cc2)[nH]n1` [Compound 89, 1-(5-tert-butyl-2H-pyrazol-3-yl)-3-{4-[5-(2-morpholin-4-yl-ethoxyl)-benzimidazol-1-yl]-phenyl}-urea], for which the GI50 in assay [1] is 0.1 to 1 µM; in assay [2], above 1 µM; in assay [3] it was above 2.5 µM.

With `CC(C)(C)c1cc(N)n(C(=O)Nc2ccc(-n3cnc4ccccc43)cc2)n1` [Compound 116, 5-amino-3-tert-butyl-pyrazol-1-carboxylic acid (4-benzimidazol-1-yl-phenyl)-amide], the GI50 in assay [1] is above 1 µM; in assay [2], above 1 µM; in assay [3], above 2.5 µM.

Source of the values: patent US10647680B2, “Urea compound, preparation method therefor and medical use thereof” (Ancureall Pharmaceutical (Shanghai) Co., Ltd., priority 2016, dated 2020).
